Measured values published in US11999748B2, “Exatecan derivatives, linker-payloads, and conjugates and thereof” (priority 2021, dated 2024).

What follows are compounds tested on high HER2 tumor cell line SK-BR-3 (assay: Effect of small molecules on cell proliferation (CellTiter-Glo)). Conditions: SK-BR-3, 120 h; (IC50 of control sample Dxd / IC50 of test sample) x 100.
Format: cell-based
Method: Study Purpose: In this experiment, cell viability was detected using CellTiter-Glo to evaluate the effects of the small molecule compounds on the proliferation of a high HER2 tumor cell line SK-BR-3, and to analyze the effects of the small molecule compounds on the proliferation of tumor cells.
(4) After the drug was added, the cells were incubated in the incubator for 120 h.
(3) ATP detection: Discard the culture medium and 100 μl/well DMEM was added, 50 μl/hole CTG was added into 96-well plate, protected from light using aluminum foil and oscillated using a vortex oscillator at room temperature of 200 rpm for 10 min.
GraphPad software was used to process the data. […] If necessary, the relative biological activity of sample A, i.e., ratio activity was calculated. Dxd was used as the control sample for the ratio activity calculation. Cell proliferation inhibition rate (%)=(luminescence value of drug-treated group−luminescence value of puro group)/(luminescence value of blank control group−luminescence value of puro group)×100 Ratio activity of sample (%)=(IC50 value of the control sample/IC50 value of the test sample)×100 Ratio activity of control sample (%)=(IC50 value of the control sample/IC50 value of the previous control sample)×100
For `CC[C@@]1(O)C(=O)OCc2c1cc1n(c2=O)Cc2c-1nc1cc(F)c(C)c3c1c2[C@@H](NC(=O)CO)CC3` [Dxd, reference compound], the “Ratio activity (%)” value was 1%. For `CC[C@@]1(O)C(=O)OCc2c1cc1n(c2=O)Cc2c-1nc1cc(F)c(OC)c3c1c2C(NC(=O)C1(O)CC1)CC3` (mixture of isomers) [C667], the “Ratio activity (%)” value was 0.658%. In the case of `CC[C@@]1(O)C(=O)OCc2c1cc1n(c2=O)Cc2c-1nc1cc(F)c(Br)c3c1c2[C@H](NC(=O)C[C@H](C)O)CC3` [C600], the “Ratio activity (%)” value is reported as 0.62%. With `CC[C@@]1(O)C(=O)OCc2c1cc1n(c2=O)Cc2c-1nc1cc(F)c(OC)c3c1c2C(NC(=O)C(O)C(F)(F)F)CC3` (some centres unmarked) [C671] the “Ratio activity (%)” value was 0.365%. For `CC[C@@]1(O)C(=O)OCc2c1cc1n(c2=O)Cc2c-1nc1cc(F)c(Br)c3c1c2[C@@H](NC(=O)[C@@H](C)O)CC3` [C597], the “Ratio activity (%)” value was 0.684%. For `CC[C@@]1(O)C(=O)OCc2c1cc1n(c2=O)Cc2c-1nc1cc(F)c(OC)c3c1c2C(NC(=O)[C@@H](C)O)CC3` (some centres unmarked) [C668], the “Ratio activity (%)” value was 0.231%. With `CC[C@@]1(O)C(=O)OCc2c1cc1n(c2=O)Cc2c-1nc1cc(F)c(Br)c3c1c2[C@@H](NC(=O)C(O)C(F)(F)F)CC3` (mixture of isomers) [C620] the “Ratio activity (%)” value was 0.384%. For `CC[C@@]1(O)C(=O)OCc2c1cc1n(c2=O)Cc2c-1nc1cc(F)c(Br)c3c1c2C(NC(=O)[C@H](C)O)CC3` (mixture of isomers) [C595], the “Ratio activity (%)” value was 0.832%. With `CC[C@@]1(O)C(=O)OCc2c1cc1n(c2=O)Cc2c-1nc1cc(F)c(Br)c3c1c2[C@H](NC(=O)C[C@@H](C)O)CC3` [C602] the “Ratio activity (%)” value was 0.29%. With `CC[C@@]1(O)C(=O)OCc2c1cc1n(c2=O)Cc2c-1nc1cc(F)c(Cl)c3c1c2[C@@H](NC(=O)[C@@H](C)O)CC3` [C677] the “Ratio activity (%)” value was 1.008%. In the case of `CC[C@@]1(O)C(=O)OCc2c1cc1n(c2=O)Cc2c-1nc1cc(F)c(C)c3c1c2[C@@H](NC(=O)C[C@@H](C)O)CC3` [C588], the “Ratio activity (%)” value is reported as 1.019%. In the case of `CC[C@@]1(O)C(=O)OCc2c1cc1n(c2=O)Cc2c-1nc1cc(F)c(Cl)c3c1c2[C@@H](NC(=O)[C@](C)(O)C(F)(F)F)CC3` [C704], the “Ratio activity (%)” value is reported as 2.271%. With `CC[C@@]1(O)C(=O)OCc2c1cc1n(c2=O)Cc2c-1nc1cc(F)c(Cl)c3c1c2[C@H](NC(=O)C1(O)CC1)CC3` [C594] the “Ratio activity (%)” value was 0.568%. `CC[C@@]1(O)C(=O)OCc2c1cc1n(c2=O)Cc2c-1nc1cc(F)c(C)c3c1c2[C@@H](NC(=O)[C@H](OCCO)C1CC1)CC3` [C563] was tested, and the “Ratio activity (%)” value was 1.284%. In the case of `CC[C@@]1(O)C(=O)OCc2c1cc1n(c2=O)Cc2c-1nc1cc(F)c(Cl)c3c1c2[C@H](NC(=O)COCCO)CC3` [C587], the “Ratio activity (%)” value is reported as 0.285%. `CC[C@@]1(O)C(=O)OCc2c1cc1n(c2=O)Cc2c-1nc1cc(F)c(Br)c3c1c2[C@@H](NC(=O)C[C@H](C)O)CC3` [C601] was tested, and the “Ratio activity (%)” value was 1.826%. With `CC[C@@]1(O)C(=O)OCc2c1cc1n(c2=O)Cc2c-1nc1cc(F)c(C)c3c1c2[C@@H](NC(=O)[C@](C)(O)C(F)(F)F)CC3` [C687] the “Ratio activity (%)” value was 1.835%. With `CC[C@@]1(O)C(=O)OCc2c1cc1n(c2=O)Cc2c-1nc1cc(F)c(Br)c3c1c2[C@H](NC(=O)CO)CC3` [C636] the “Ratio activity (%)” value was 0.682%. `CC[C@@]1(O)C(=O)OCc2c1cc1n(c2=O)Cc2c-1nc1cc(F)c(C)c3c1c2[C@@H](NC(=O)COCCO)CC3` [C504] was tested, and the “Ratio activity (%)” value was 0.703%. With `CC[C@@]1(O)C(=O)OCc2c1cc1n(c2=O)Cc2c-1nc1cc(F)c(C)c3c1c2[C@@H](NC(=O)[C@@](C)(O)C(F)(F)F)CC3` [C688] the “Ratio activity (%)” value was 0.744%. For `CC[C@@]1(O)C(=O)OCc2c1cc1n(c2=O)Cc2c-1nc1cc(F)c(Br)c3c1c2[C@H](NC(=O)C(O)C(F)(F)F)CC3` (mixture of isomers) [C619], the “Ratio activity (%)” value was 0.434%. With `CC[C@@]1(O)C(=O)OCc2c1cc1n(c2=O)Cc2c-1nc1cc(F)c(Cl)c3c1c2[C@@H](NC(=O)[C@@H](O)C1CC1)CC3` [C622] the “Ratio activity (%)” value was 0.669%. With `CC[C@@]1(O)C(=O)OCc2c1cc1n(c2=O)Cc2c-1nc1cc(F)c(Cl)c3c1c2C(NC(=O)C[C@H](C)O)CC3` (mixture of isomers) [C625] the “Ratio activity (%)” value was 0.783%. With `CC[C@@]1(O)C(=O)OCc2c1cc1n(c2=O)Cc2c-1nc1cc(F)c(C)c3c1c2[C@@H](NC(=O)[C@@H](OCCO)C1CC1)CC3` [C562] the “Ratio activity (%)” value was 1.029%. With `CC[C@@]1(O)C(=O)OCc2c1cc1n(c2=O)Cc2c-1nc1cc(F)c(Br)c3c1c2[C@@H](NC(=O)C[C@@H](C)O)CC3` [C603] the “Ratio activity (%)” value was 1.439%. In the case of `CC[C@@]1(O)C(=O)OCc2c1cc1n(c2=O)Cc2c-1nc1cc(F)c(Cl)c3c1c2[C@@H](N)CC3` [C730], the “Ratio activity (%)” value is reported as 1.35%. In the case of `CC[C@@]1(O)C(=O)OCc2c1cc1n(c2=O)Cc2c-1nc1cc(F)c(Cl)c3c1c2[C@@H](NC(=O)[C@@H](O)C(F)(F)F)CC3` [C627], the “Ratio activity (%)” value is reported as 5.054%. With `CC[C@@]1(O)C(=O)OCc2c1cc1n(c2=O)Cc2c-1nc1cc(F)c(Cl)c3c1c2C(NC(=O)[C@H](O)C1CC1)CC3` (mixture of isomers) [C624] the “Ratio activity (%)” value was 0.916%. With `CC[C@@]1(O)C(=O)OCc2c1cc1n(c2=O)Cc2c-1nc1cc(F)c(Cl)c3c1c2[C@H](N)CC3` [C731] the “Ratio activity (%)” value was 0.82%. `CC[C@@]1(O)C(=O)OCc2c1cc1n(c2=O)Cc2c-1nc1cc(F)c(Cl)c3c1c2[C@@H](NC(=O)[C@H](O)C(F)(F)F)CC3` [C626] was tested, and the “Ratio activity (%)” value was 0.54%. `CC[C@@]1(O)C(=O)OCc2c1cc1n(c2=O)Cc2c-1nc1cc(F)c(Cl)c3c1c2[C@@H](NC(=O)CCCO)CC3` [C679] was tested, and the “Ratio activity (%)” value was 0.49%. In the case of `CC[C@@]1(O)C(=O)OCc2c1cc1n(c2=O)Cc2c-1nc1cc(F)c(C)c3c1c2[C@@H](NC(=O)C1(OCCO)CC1)CC3` [C565], the “Ratio activity (%)” value is reported as 1.381%. `CC[C@@]1(O)C(=O)OCc2c1cc1n(c2=O)Cc2c-1nc1cc(F)c(OC)c3c1c2C(NC(=O)CO)CC3` (mixture of isomers) [C664] was tested, and the “Ratio activity (%)” value was 0.269%. For `CC[C@@]1(O)C(=O)OCc2c1cc1n(c2=O)Cc2c-1nc1cc(F)c(Cl)c3c1c2[C@H](NC(=O)[C@@H](C)O)CC3` [C678], the “Ratio activity (%)” value was 0.277%. For `CC[C@@]1(O)C(=O)OCc2c1cc1n(c2=O)Cc2c-1nc1cc(F)c(Cl)c3c1c2[C@@H](NC(=O)CO)CC3` [C518, N-((1S,9S)-4-chloro-9-ethyl-5-fluoro-9-hydroxy-10,13-dioxo-2,3,9,10,13,15-hexahydro-1H,12H-benzo[de]pyrano[3′,4′:6,7]indolizino[1,2-b]quinolin-1-yl)-2-hydroxyacetamide], the “Ratio activity (%)” value was 2.272%. With `CC[C@@]1(O)C(=O)OCc2c1cc1n(c2=O)Cc2c-1nc1cc(F)c(Br)c3c1c2[C@H](NC(=O)[C@@H](C)O)CC3` [C596] the “Ratio activity (%)” value was 0.911%. For `CC[C@@]1(O)C(=O)OCc2c1cc1n(c2=O)Cc2c-1nc1cc(F)c(C)c3c1c2[C@@H](NC(=O)C[C@H](C)O)CC3` [C589, (S)—N-((1S,9S)-9-ethyl-5-fluoro-9-hydroxy-4-methyl-10,13-dioxo-2,3,9,10,13,15-hexahydro-1H,12H-benzo[de]pyrano[3′,4′:6,7]indolizino[1,2-b]quinolin-1-yl)-3-hydroxybutanamide], the “Ratio activity (%)” value was 1.325%. With `CC[C@@]1(O)C(=O)OCc2c1cc1n(c2=O)Cc2c-1nc1cc(F)c(Cl)c3c1c2[C@H](NC(=O)CO)CC3` [C519, N-((1R,9S)-4-chloro-9-ethyl-5-fluoro-9-hydroxy-10,13-dioxo-2,3,9,10,13,15-hexahydro-1H,12H-benzo[de]pyrano[3,4′:6,7]indolizino[1,2-b]quinolin-1-yl)-2-hydroxyacetamide] the “Ratio activity (%)” value was 1.059%. With `CC[C@@]1(O)C(=O)OCc2c1cc1n(c2=O)Cc2c-1nc1cc(F)c(Br)c3c1c2[C@@H](NC(=O)CO)CC3` [C637] the “Ratio activity (%)” value was 1.585%. With `CC[C@@]1(O)C(=O)OCc2c1cc1n(c2=O)Cc2c-1nc1cc(F)c(Cl)c3c1c2[C@@H](NC(=O)C1(O)CC1)CC3` [C593] the “Ratio activity (%)” value was 2.514%. In the case of `CC[C@@]1(O)C(=O)OCc2c1cc1n(c2=O)Cc2c-1nc1cc(F)c(Cl)c3c1c2[C@@H](NC(=O)COCCO)CC3` [C586], the “Ratio activity (%)” value is reported as 0.259%. For `CC[C@@]1(O)C(=O)OCc2c1cc1n(c2=O)Cc2c-1nc1cc(F)c(Cl)c3c1c2[C@H](NC(=O)CCCO)CC3` [C680], the “Ratio activity (%)” value was 0.546%. `CC[C@@]1(O)C(=O)OCc2c1cc1n(c2=O)Cc2c-1nc1cc(F)c(Cl)c3c1c2[C@H](NC(=O)[C@](C)(O)C(F)(F)F)CC3` [C703] was tested, and the “Ratio activity (%)” value was 0.846%. With `CC[C@@]1(O)C(=O)OCc2c1cc1n(c2=O)Cc2c-1nc1cc(F)c(OC)c3c1c2C(NC(=O)C[C@H](C)O)CC3` (mixture of isomers) [C665] the “Ratio activity (%)” value was 0.495%.
